Like-named read-outs stand apart in the source and are kept apart here.
Tests used:
rats [1] = test: MES test, rats p.o.; assay type: in vivo; details: at 30 mg/kg
mice [2] = test: Effects observed in mice after i.p. injection (CNS stimulation, diarrhea); assay type: in vivo
Protocol: In addition, two further tertiary amide compounds, BJ and BT, produced diarrhea in the mice 30 minutes after i.p. injection of 100 mg/kg of each.

mice [3] = test: Maximal Electroshock Seizure (MES) test, mice i.p.; assay type: in vivo; details: for MES, fraction of animals: mice i.p.; for ED50: Mus musculus, ip
mice [4] = test: Subcutaneous Metrazol Seizure threshold (s.c. MET) test, mice i.p.; assay type: in vivo; details: for ED50: Mus musculus, i.p.; for s.c. MET, fraction of animals: mice i.p.
mice [5] = test: Minimal motor impairment (MID50), mice i.p.; details: for MID50, fraction of animals: mice i.p., 100 mg/kg @ 0.5 hr; for MID50 (median minimal motor impairment dose): mice, i.p.
Protocol: The animal testing was performed according to methods known in the relevant art.

rats [6] = test: Pilocarpine-induced Status Epilepticus in Rats (prevention; intervention @ 30 min); details: Rattus norvegicus
Protocol: The animal testing was performed using the protocols developed in the Anticonvulsant Screening Program (ASP) at the National Institute of Neurological Disorders and Stroke (NINDS), National Institutes of Health (NIH).

mice [7] = test: 6 Hz (minimal clonic seizure) model, mice i.p.; assay type: in vivo; details: mice i.p.
C3A hepatocyte cells [8] = test: ACTIVTox LDH release assay; assay type: cell-based
Protocol: Compounds A, I, H, and F were tested by Stem Cell Innovations, Inc. (Houston, TX) in their ACTIVTox® Human Liver Cell-based assays (using C3A hepatocyte cells). Specifically, the compounds were tested in the LDH release assay, which determines the release of Lactate DeHydrogenase (an indicator of cell death) at various concentrations of test compound.
A concentration of 100 µM of test compound is a much higher level of exposure to liver cells than would ever be expected under physiological conditions. Therefore, using 100 μM as a standard test concentration (for comparative purposes), the ratio of the absorbance (which measures the level of LDH release) resulting from the presence of the test compound versus the negative control is a value known as the “average (or mean) fold control” (Average Fold Control=Average of Absorbance/Average of Negative Control).

mice [9] = test: Corneal kindled mouse model; assay type: in vivo; details: mice i.p.; 100 mg/kg @ 0.5 hr
C3A hepatocyte cells [10] = test: ACTIVTox Cell Proliferation Assay; assay type: cell-based; details: at a concentration of 100 μM
rats [11] = test: s.c. MET test, rats p.o.; assay type: in vivo; details: at 30 mg/kg
rats [12] = test: Hippocampal Kindled Rats model; assay type: in vivo; details: rats, at 100 mg/kg
rats [13] = test: Sciatic nerve ligation model in rats; assay type: in vivo; details: 100 mg/kg
Protocol: [The response (threshold for foot withdrawal) was measured in grams.]

SMN2 promoter = SMN2 promoter β-lactamase reporter assay in NSC34 motor neuron-like cells; assay type: cell-based; details: treatment for 19 hours at a concentration of 1 μM
Protocol: FIG. 30 illustrates a screen for SMN2 expression of a number of compounds described herein.
SMN2 promoter activity was measured using NSC34 motor neuron-like cells stably transfected with a β-lactamase (BLA) reporter gene under the control of a 3.4-kilobase fragment of the SMN2 promoter. D156844 was used as a positive control for this assay.

[14] = 0.5 h, read-out: Intervention @ 30 min, Protection
[15] = read-out: Prevention, Protection

Which “activity in the MES test” value (rats [1]) does the source give for `CC(CC(=O)N1CCN(C)CC1)c1ccc(OC(F)(F)F)cc1.Cl` (stereo not shown) [BJ, 1-(4-Methyl-piperazin-1-yl)-3-(4-trifluoromethoxy-phenyl)-butan-1-one hydrochloride] here?
The value was “activity”.

And the “effect produced in the mice” value (mice [2]; 30 minutes after i.p. injection of 100 mg/kg)?
Its value is “diarrhea”.

And the “MES, fraction of animals” value (mice [3]; 100 mg/kg @ 0.25 hr)?
Its value is 2/3 @.

And the “activity in the MES test” value (mice [3]; mice, at 100 mg/kg)?
Its value is “activity”.

What does the source list for `CC(CC(N)=O)c1cccc(OC(F)(F)F)c1` (stereo not shown) [I, 3-[3-(trifluoromethoxy)-phenyl]butyramide]?
ED50 (mice [4]; mice): ≤ 100 mg/kg; s.c. MET, fraction of animals (mice [4]; 100 mg/kg @ 0.5 hr): 1/1 @0.5,; s.c. MET, fraction of animals (mice [4]; 100 mg/kg @ 4.0 hr): 1/5 @ 4.0 hr; MID50, fraction of animals (mice [5]): 8/8 @0.50 hr,; MID50 (median minimal motor impairment dose) (mice [5]): <100 mg/kg; responders at 130 mg/kg (rats [6]; [14]): 100%; responders at 65 mg/kg (rats [6]; [15]): 86%; 6 Hz (32 mA), fraction of animals (mice [7]; 50 mg/kg @ 0.25 hr): 3/4; 6 Hz (32 mA), fraction of animals (mice [7]; 50 mg/kg @ 0.5 hr): 2/4; 6 Hz (32 mA), fraction of animals (mice [7]; 100 mg/kg @ 4.0 hr): 2.0 and 1/4; activity in the MES test (rats [1]): activity; LDH release, mean fold control (C3A hepatocyte cells [8]; at 100 μM, C3A hepatocyte cells, value below 1.75 = no cyto- or hepatotoxic activity): 1.03; cyto- or hepatotoxicity, ACTIVTox data (C3A hepatocyte cells [8]; at physiologically relevant concentrations (i.e., <100 µM)): not cyto- or hepatotoxic; Corneal Kindled, Average seizure score (mice [9]): score is 0:; Corneal Kindled, fraction of animals (mice [9]): 4/4 @; ED50 (mice [3]; mice): < 100 mg/kg; MES, fraction of animals (mice [3]; 100 mg/kg @ 0.5 hr): 3/3 @0.5,; MES, fraction of animals (mice [3]; 100 mg/kg @ 4.0 hr): 3/3 @ 4.0 hr; Cell Proliferation Assay, mean fold control (C3A hepatocyte cells [10]): 1.25; toxicity to proliferating cells (C3A hepatocyte cells [10]): non-toxic

With `CC(CC(N)=O)c1cccc(C(F)(F)F)c1` (stereo not shown) [Compound G, 3-[3-(trifluoromethyl)-phenyl]butyramide] as the compound, how does the “activity in the s.c. MET test” value (rats [11]) read?
The value was “activity”.

What about the ED50 (mice [4]; mice) of the same compound?
Its ED50 is no more than 100 mg/kg.

What about the “s.c. MET, fraction of animals” value (mice [4]; 100 mg/kg @ 0.5 hr) of the same compound?
The value was 1/1 @0.5.

What about the “MID50, fraction of animals” value (mice [5]) of the same compound?
The value was 7/8 @0.5 hr.

And the “MID50 (median minimal motor impairment dose)” value (mice [5])?
The value was less than 100 mg/kg.

And the responders at 200 mg/kg (rats [6]; [14])?
Its responders at 200 mg/kg is 88%.

What about the responders at 200 mg/kg (rats [6]; [15]) of the same compound?
Its responders at 200 mg/kg is 100%.

And the “activity in the MES test” value (rats [1])?
Its value is “activity”.

What about the “seizure score, Hippocampal Kindled Rats model” value (rats [12]) of the same compound?
Its value is “significantly lowering the seizure score”.

What about the allodynic threshold (rats [13]; 1 hour post-administration) of the same compound?
The allodynic threshold was 275 % of the control.

And the allodynic threshold (rats [13]; 2 hours post-administration)?
Its allodynic threshold is 219 % of the control.

And the allodynic threshold (rats [13]; 4 hours post-administration)?
The allodynic threshold was 175 % of the control.

And the ED50 (mice [3]; mice)?
The ED50 was less than 100 mg/kg.

And the “MES, fraction of animals” value (mice [3]; 100 mg/kg @ 0.5 hr)?
Its value is 3/3 @0.5.

What about the “MES, fraction of animals” value (mice [3]; 100 mg/kg @ 4.0 hr) of the same compound?
Its value is “hr, 1/3 @”.

What does the source list for `CC(CC(=O)N1CCCCC1)c1ccc(OC(F)(F)F)cc1` (stereo not shown) [BH, 1-Piperidin-1-yl-3-(4-trifluoromethoxy-phenyl)-butan-1-one]?
activity in the s.c. MET test (mice [4]; mice, at 300 mg/kg): activity; SMN2 promoter activity (SMN2 promoter): increased SMN2 promoter activity; CNS-stimulating effect observed (mice [2]; mice, on injection): vocalization and hyperactivity; duration of vocalization and hyperactivity (mice [2]; mice, on injection): 5 to 6 min

— patent US12486218B2, “Compounds advantageous in the treatment of central nervous system diseases and disorders” (AurimMed Pharma, Inc., priority 2008, dated 2025)
